Legend:
[1] = tested on: MCF7; assay: Antiproliferative activity against human MCF7 cells assessed as reduction in cell viability after 72 hrs by sulforhodamine B assay; type: functional, cell-based; conditions: MCF7, 72 h
[2] = tested on: LNCaP; assay: Inhibition of steroid 5-alpha-reductase in human LNCAP cells assessed as reduction in 5- dihydrotestosterone formation at 100 uM incubated for 60 mins by LC-MS analysis relative to control; type: cell-based
[3] = tested on: PC-3; assay: Antiproliferative activity against human PC3 cells assessed as reduction in cell viability by MTT assay; type: functional, cell-based
[4] = tested on: HeLa; assay: Antiproliferative activity against human HeLa cells assessed as reduction in cell viability after 72 hrs by sulforhodamine B assay; type: functional, cell-based
[5] = Inhibition of steroid 5-alpha-reductase in human LNCAP cells assessed as reduction in 5- dihydrotestosterone formation incubated for 60 mins by LC-MS analysis; type: cell-based; conditions: 1 h

| Structure (SMILES) | IC50 [1] [µM] | inhibition [2] [%] | IC50 [3] [µM] | IC50 [4] [µM] | IC50 [5] [µM] |
| --- | --- | --- | --- | --- | --- |
| C=C1CCC[C@H]2[C@](C)(CC3=C(O)C(=O)C=C(NCC(C)C)C3=O)[C@@H](C)CC[C@]12C | > 10 | < 50 | > 10 | > 10 |  |
| C=C1CCC[C@H]2[C@](C)(CC3=C(O)C(=O)C=C(OC)C3=O)[C@@H](C)CC[C@]12C [ILIMAQUINONE] | > 10 | < 50 | > 10 | > 10 |  |
| COC(=O)c1cc(O)c(O)c(C[C@H]2C(C)=CC[C@H]3C(C)(C)CCC[C@]23C)c1 | > 10 | < 50 | > 10 | > 10 |  |
| COC1=CC(=O)C(O)=C(C/C=C(\C)CC/C=C(\C)CCC=C(C)C)C1=O | > 10 | < 50 | > 10 | > 10 |  |
| C=C1CCC[C@H]2[C@](C)(CC3=C(O)C(=O)C=C(OC)C3=O)[C@@H](C)CC[C@@]12C | > 10 | < 50 | > 10 | > 10 |  |
| C=C1CCC[C@H]2[C@](C)(CC3=C(O)C(=O)C=C(NCCc4ccccc4)C3=O)[C@@H](C)CC[C@]12C | > 10 | < 50 | > 10 | > 10 |  |
| CC(C)(C)NC(=O)[C@H]1CC[C@H]2[C@@H]3CC[C@H]4NC(=O)C=C[C@]4(C)[C@H]3CC[C@]12C [FINASTERIDE] |  |  |  |  | 0.76 |
| COC1=CC(=O)C2=C(C[C@H]3[C@]4(C)CCCC(C)(C)[C@H]4CC[C@@]3(C)O2)C1=O | > 10 |  | > 10 | > 10 | 0.73 |
| C=C1CCC[C@H]2[C@](C)(CC3=C(O)C(=O)C(CCCCC(C)=O)=C(OC)C3=O)[C@@H](C)CC[C@]12C | > 10 | < 50 | > 10 | > 10 |  |
| COC(=O)c1cc(C[C@H]2C(C)=CC[C@H]3C(C)(C)CCC[C@]23C)c(O)c(O)c1O | > 10 | < 50 | > 10 | > 10 |  |
